Our source for the EC50 and IC50 values is patent publication US6869964B2, “Heterocyclicsulfonamide hepatitis C virus inhibitors” (Bristol-Myers Squibb Company, priority 2002, dated 2005).

Experiment [1] concerns HCV replicon in Huh7 cells. Kind of experiment: HCV replicon cell-based assay (FRET). Conditions: Hepatitis C virus. Also on record: species or system HCV strain 1B. A digest of the protocol:
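Huh7 cells carrying a genotype 1b subgenomic HCV replicon (NS3–NS5B, neo) exposed to compound for 4 days at 37 °C, 0.5% DMSO final. After lysis with reagent containing 10 μM FRET peptide substrate, NS3 protease activity read kinetically at 340/490 nm; EC50 derived.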
(In general: A replicon is a self-replicating genome or part of one, used to study replication in cells.)

Experiment [2] deals with T1, HCV NS3/4A protease complex (H77C strain) (Hepatitis C virus genotype 1a, UniProt P27958, C1454S).
T1 construct: HCV NS3/4A protease complex (amino acids 1027 to 1711); inferred from pET21b vector and Ni-NTA purification; made in house; host or cells: Escherichia coli BL21 (DE3), pET21b
Kind of experiment: Recombinant HCV NS3/4A protease complex FRET peptide assay, H77C strain. The experiment is classed as biochemical, HCV genotype 1a. An excerpt: Recombinant HCV NS3/4A Protease Complex FRET Peptide Assay
The purpose of this in vitro assay was to measure the inhibition of HCV NS3 protease complexes, derived from the BMS, H77C or J4l6S strains, as described below, by compounds of the present invention. This assay provides an indication of how effective compounds of the present invention would be in inhibiting HCV proteolytic activity.
Serum from an HCV-infected patient was obtained from Dr. T. Wright, San Francisco Hospital. An engineered full-length cDNA template of the HCV genome (BMS strain) was constructed from DNA fragments obtained by reverse transcription-PCR (RT-PCR) of serum RNA and using primers selected on the basis of homology between other genotype la strains. From the determination of the entire genome sequence, a genotype la was assigned to the HCV isolate according to the classification of Simmonds et al. (See P Simmonds, K A Rose, S Graham, S W Chan, F McOmish, B C Dow, E A Follett, P L Yap and H Marsden, J. Clin. Microbiol., 31(6), 1493-1503 (1993)). […]

Each structure is given as a SMILES string. pEC50, pIC50: −log10 of the molar value. Like-named read-outs stand apart in the source and are kept apart here. Where only a bound is given, the exact number is not on record here.

As usually defined, the pEC50 is the EC50 on a negative log10 scale, so that one unit is a factor of ten. In general, pIC50 refers to the negative decadic logarithm of the IC50, by convention in mol/L.

T1 sequence (P27958 1027-1657 C1454S): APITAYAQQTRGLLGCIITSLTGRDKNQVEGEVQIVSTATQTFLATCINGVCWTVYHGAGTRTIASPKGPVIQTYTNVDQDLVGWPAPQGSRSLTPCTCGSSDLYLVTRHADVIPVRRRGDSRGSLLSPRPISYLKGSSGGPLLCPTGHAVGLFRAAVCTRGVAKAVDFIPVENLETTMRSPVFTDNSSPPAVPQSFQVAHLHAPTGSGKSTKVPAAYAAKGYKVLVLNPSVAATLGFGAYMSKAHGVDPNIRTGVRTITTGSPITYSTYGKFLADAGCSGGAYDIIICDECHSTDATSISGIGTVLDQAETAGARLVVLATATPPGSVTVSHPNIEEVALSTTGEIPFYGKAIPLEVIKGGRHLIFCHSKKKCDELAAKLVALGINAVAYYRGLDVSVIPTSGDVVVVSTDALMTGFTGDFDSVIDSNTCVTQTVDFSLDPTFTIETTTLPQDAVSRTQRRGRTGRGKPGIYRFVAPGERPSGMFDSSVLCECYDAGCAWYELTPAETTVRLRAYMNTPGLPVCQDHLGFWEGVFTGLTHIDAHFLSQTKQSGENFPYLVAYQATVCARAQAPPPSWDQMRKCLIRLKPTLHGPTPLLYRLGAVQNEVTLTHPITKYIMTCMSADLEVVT
T1 sequence (P27958 1658-1711 partner, looked up, stated change not applied): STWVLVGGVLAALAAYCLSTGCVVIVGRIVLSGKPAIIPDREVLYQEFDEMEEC

As to `C=CC1C[C@]1(NC(=O)[C@@H]1C[C@@H](Oc2cc(-c3ccccc3)nc3cc(OC)ccc23)CN1C(=O)[C@@H](NC(=O)OC(C)(C)C)C(C)(C)C)C(=O)NS(=O)(=O)c1cccs1` (stereo in doubt) [Compound 1, (1-{4-(7-Methoxy-2-phenylquinolin-4-yloxy)-2-[1-(thiophene-2-sulfonylaminocarbonyl)-2-vinyl-cyclopropylcarbamoyl]-pyrrolidine-1-carbonyl}-2,2-dimethylpropyl)carbamic acid tert-butyl ester], the negative-log EC50 (pEC50) in experiment [1] (Huh-7, 96 h, Huh7 cells, 4 days, read-out: EC50 value in the replicon assay) is 7.26; in experiment [1] (Huh-7, replicon, activity range, read-out: EC50 a, b, c (Activity Table)) it was above 7.00. Further, the pIC50 in experiment [2] was 8.66.
